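48-hour exposure; five concentrations; linearly interpolated endpoints. Abbreviation: GI50, concentration required for 50% inhibition of growth.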 Activity calls are given as the source filed them. No stated cut-off is given here; in the data, active = GI50 up to about 1.1 µM and inactive = higher.
How the values were obtained:
Assay in all cases: inhibition of tumour cell growth, NCI panel, 48 h
[1] = test system: 786-0
[2] = test system: A498
[3] = test system: A549
[4] = test system: ACHN
[5] = test system: CCRF-CEM
[6] = test system: COLO 205
[7] = test system: DLD-1
[8] = test system: DMS-114
[9] = test system: DMS-273
[10] = test system: EKVX
[11] = test system: HCC 2998
[12] = test system: HCT-116
[13] = test system: HCT-15
[14] = test system: HL-60
[15] = test system: HOP-18
[16] = test system: HOP-62
[17] = test system: HT-29
[18] = test system: IGROV-1
[19] = test system: K562
[20] = test system: KM-20L2
[21] = test system: KM12
[22] = test system: LOX IMVI
[23] = test system: LXFL 529
[24] = test system: M14
[25] = test system: M19-MEL
[26] = test system: MOLT-4
[27] = test system: Malme-3M
[28] = test system: NCI-H226
[29] = test system: NCI-H23
[30] = test system: NCI-H460
[31] = test system: NCI-H522
[32] = test system: OVCAR-3
[33] = test system: OVCAR-5
[34] = test system: OVCAR-8
[35] = test system: RPMI-8226
[36] = test system: RXF 393
[37] = test system: SF-295
[38] = test system: SF-539
[39] = test system: SK-MEL-28
[40] = test system: SK-MEL-2
[41] = test system: SK-MEL-5
[42] = test system: SK-OV-3
[43] = test system: SN12C
[44] = test system: SNB-19
[45] = test system: SNB-75
[46] = test system: SNB-78
[47] = test system: SR
[48] = test system: SW-620
[49] = test system: TK-10
[50] = test system: U-251
[51] = test system: UACC-257
[52] = test system: UACC-62
[53] = test system: UO-31
[54] = test system: XF498
[55] = test system: CAKI-1
[56] = test system: HOP-92
[57] = test system: SF-268
[58] = test system: OVCAR-4
[59] = test system: RXF 631

Measured: GI50

C1CNCCNCCNCCN1
inactive: [1] > 100 µM | [2] > 100 µM | [3] > 100 µM | [4] > 100 µM | [5] > 100 µM | [6] 37.5 µM | [7] 41.3 µM | [8] > 100 µM | [9] 53.8 µM | [10] > 100 µM | [11] 64.3 µM | [12] 50.1 µM | [14] 62.7 µM | [15] > 100 µM | [16] > 100 µM | [17] 63.5 µM | [18] > 100 µM | [19] 70.5 µM | [20] 82.6 µM | [21] > 100 µM | [22] > 100 µM | [23] > 100 µM | [24] > 100 µM | [25] > 100 µM | [26] 64.6 µM | [27] > 100 µM | [28] > 100 µM | [29] > 100 µM | [30] 35.8 µM | [31] > 100 µM | [32] 72.6 µM | [33] > 100 µM | [34] > 100 µM | [35] > 100 µM | [36] > 100 µM | [37] > 100 µM | [38] > 100 µM | [39] > 100 µM | [40] > 100 µM | [41] > 100 µM | [42] > 100 µM | [43] > 100 µM | [44] > 100 µM | [45] > 100 µM | [46] > 100 µM | [47] 51.6 µM | [48] 52.2 µM | [49] > 100 µM | [50] 24 µM | [51] > 100 µM | [52] > 100 µM | [53] > 100 µM
active: [54] 0.14 µM
> 10 µM: [13]

O/N=C(\C(=N/O)Nc1ccc(-c2ccc(NC(=N/O)/C(=N\O)c3ccccc3)cc2)cc1)c1ccccc1
27.3 µM: [13]
active: [11] 0.214 µM
inactive: [1] 21.5 µM | [2] 24.1 µM | [3] 31.5 µM | [4] 30.6 µM | [55] 22.4 µM | [5] 18.8 µM | [6] 16.7 µM | [7] 22.3 µM | [9] 19.1 µM | [10] 20.4 µM | [12] 18.7 µM | [14] 27.9 µM | [15] 13.6 µM | [16] 11 µM | [56] 20 µM | [17] 13.6 µM | [18] 25.1 µM | [19] 18 µM | [20] 18.9 µM | [21] 19 µM | [22] 15.3 µM | [23] 15.7 µM | [24] 17.9 µM | [25] 17.2 µM | [26] 17.3 µM | [27] 19.4 µM | [28] 28.5 µM | [29] 17.5 µM | [30] 17.3 µM | [31] 17.8 µM | [32] 17.1 µM | [33] 13.5 µM | [34] 21.4 µM | [35] 25.9 µM | [57] 27.4 µM | [37] 18.6 µM | [38] 18.9 µM | [40] 20.2 µM | [41] 20.3 µM | [42] 17.5 µM | [43] 32.8 µM | [44] 19.2 µM | [46] 30.8 µM | [48] 22.2 µM | [49] 36.8 µM | [50] 25.7 µM | [51] 29.9 µM | [52] 18.5 µM | [53] 31.8 µM | [54] 19.3 µM

Cc1nc2ccc(N)cc2nc1O
> 100 µM: [13]
inactive: [1] > 100 µM | [2] > 100 µM | [3] > 100 µM | [4] > 100 µM | [55] > 100 µM | [5] > 100 µM | [6] > 100 µM | [7] > 100 µM | [9] > 100 µM | [10] > 100 µM | [11] > 100 µM | [12] > 100 µM | [14] > 100 µM | [16] > 100 µM | [56] 5.89 µM | [18] > 100 µM | [19] > 100 µM | [20] > 100 µM | [21] > 100 µM | [22] > 100 µM | [23] > 100 µM | [24] > 100 µM | [25] > 100 µM | [26] > 100 µM | [27] > 100 µM | [30] > 100 µM | [32] > 100 µM | [58] > 100 µM | [33] > 100 µM | [34] > 100 µM | [35] > 100 µM | [59] > 100 µM | [37] > 100 µM | [38] > 100 µM | [40] > 100 µM | [41] > 100 µM | [42] > 100 µM | [44] > 100 µM | [46] > 100 µM | [48] > 100 µM | [49] > 100 µM | [50] > 100 µM | [51] > 100 µM | [52] > 100 µM | [53] > 100 µM

From ChEMBL document CHEMBL1201862, “PubChem BioAssay data set” (2004)
